Data taken from US10947129B2, “Fluid disinfection with ultraviolet radiation and a chemical disinfectant” (Trojan Technologies, priority 2015, dated 2021).
Entries after “also recorded” stand apart in the source; their conditions may differ.

How the values were obtained:
total coliform = conditions: cited from earlier work
[1] = PAA demand/decay in WWTP secondary effluent (Equation 1 fit); type: physicochemical; conditions: for Decay (k, 1/min) / Demand (D, mg/L): PAA only disinfection
Description: (§1) In this study, secondary effluent samples were collected and treated with PAA to achieve residual concentration*contact time (CTs) of 2.5-50 mg·min/L. PAA tests were conducted in clean glass beakers (500 or 2000 mL), and mixed continuously using a magnetic stirrer (600 rpm). Measurements of PAA residuals were collected over time, and E. coli samples were collected following PAA quenching using sodium bisulfite. The four samples collected between September 22-24 were each treated with PAA (CO=5.0 mg/L) in order to estimate the demand/decay for each sample. […] The demand/decay kinetic parameters were recalculated using the experimental results from each inactivation experiment.
PAA residuals were fitted to a demand/decay curve using Equation 1. The PAA CT (mg·min/L) was determined by integrating the area under the demand/decay curve and is calculated using Equation 2. C=(C0−D)e^−kt [Equation 1] where, • C is the concentration of PAA (mg/L) at time t (min) • C0 is initial concentration of PAA (mg/L) • D is the instantaneous demand of PAA (mg/L) • k is the decay rate constant of PAA (1/min) • t is the contact time (min)

E. coli [2] = assay: E. coli inactivation by PAA alone in WWTP secondary effluent (bench test); type: cell-based, Escherichia coli
Description: as §1
[formula] where, • CT is the integral PAA dose (concentration*contact time); mg·min/L (Santoro et al., 2015) PAA and UV Disinfection Kinetics
To develop an disinfection kinetic model, the concentration of viable for E. coli can be plotted against either PAA—CT dose or UV fluence and the data fitted using the double exponential inactivation model, described in Equation 3. […]
The E. coli inactivation kinetics by PAA was calculated for each sample by plotting the viable concentration of E. coli on a log scale (y-axis) against the PAA—CT dose (x-axis), and is shown in FIG. 11. […]

E. coli [3] = assay: Combined UV and PAA disinfection tests on WWTP secondary effluent; type: cell-based, Escherichia coli
From the text: For the UV+PAA experiment, effluent was first irradiated to UV fluences of 10, 15 or 20 mJ/cm^2, then dosed with PAA as described above. For the PAA+UV experiment, effluent was first dosed with PAA as described above. After set durations, portions of the sample were removed, PAA quenched with sodium bisulfite, and then subjected to UV fluences of 10, 15 or 20 mJ/cm^2. For the simultaneous PAA+UV experiment, two different scenarios were investigated. The first involved dosing PAA at the onset of UV irradiation, irradiating for a set duration, and then removing the sample from UV exposure and continuing to stir until a desired PAA contact time was achieved. The second scenario involved first dosing PAA and allowing it to stir for a period prior to subjecting it to UV irradiation.
Three distinct scenarios were performed with respect to testing the combined UV and PAA disinfection processes: UV prior to PAA (UV→PAA), PAA prior to UV (PAA→UV), simultaneous UV and PAA (UV+PAA). For the UV→PAA tests, UV fluences of 10, 15, and 20 mJ/cm^2 were applied prior to PAA addition, and PAA CTs ranged from 5-25 mg·min/L. Each of FIGS. 14-26 illustrates the results for viable E. coli as a function of PAA CT exposure with different levels of UV fluence applied, prior to PAA treatment.

[4] = low UV fluence (13 mJ/cm^2), PAA added before or after UV irradiation; cited from earlier work

Q: With CC(=O)OO [PAA, peracetic acid] as the compound, how does the “inactivation of total coliform” value (total coliform; PAA 2 mg/L applied immediately before UV fluence of 192 mJ/cm^2) read?
A: The value was “over 4 log”.

Q: What about the “attainment of target disinfection levels” value (total coliform; PAA concentration between 2 and 8 mg/L, alone) of the same compound?
A: The value was “unable to reach the target disinfection levels”.

Q: And the “Decay (k, 1/min)” value ([1]; sample Sept. 22 - AM)?
A: The value was 0.063 min⁻¹.

Q: And the “Demand (D, mg/L)” value ([1]; sample Sept. 22 - AM)?
A: The value was 3.58 mg/L.

Q: What about the “Decay (k, 1/min)” value ([1]; sample Sept. 22 - PM) of the same compound?
A: Its value is 0.057 min⁻¹.

Q: And the “Demand (D, mg/L)” value ([1]; sample Sept. 22 - PM)?
A: The value was 2.60 mg/L.

Q: And the “Decay (k, 1/min)” value ([1]; sample Sept. 24 - AM)?
A: Its value is 0.056 min⁻¹.

Q: What about the “Demand (D, mg/L)” value ([1]; sample Sept. 24 - AM) of the same compound?
A: Its value is 3.50 mg/L.

Q: What about the “Decay (k, 1/min)” value ([1]; sample Sept. 24 - PM) of the same compound?
A: The value was 0.058 min⁻¹.

Q: What about the “Demand (D, mg/L)” value ([1]; sample Sept. 24 - PM) of the same compound?
A: The value was 2.91 mg/L.

Q: And the decay rates ([1]; all samples)?
A: The decay rates was “ca. 0.060 l/min”.

Q: What about the PAA demand ([1]; samples collected in the afternoon) of the same compound?
A: The PAA demand was “ca. 2.75 mg/L”.

Q: And the PAA demand ([1]; samples collected in the morning)?
A: The PAA demand was “ca. 3.5 mg/L”.

Q: What about the “PAA CT dose required to meet disinfection target” value (E. coli [2]; target 63 MPN/100 mL (half the 30-day geomean permit), model from all data) of the same compound?
A: The value was 49.2 mg·min/L.

Q: And the “PAA CT dose required to meet disinfection target” value (E. coli [2]; target 244 MPN/100 mL (half the daily maximum permit), model from poorest inactivation data)?
A: Its value is 36.0 mg·min/L.

Q: And the “attainment of E. coli disinfection targets” value (E. coli [3]; PAA prior to UV (PAA→UV), PAA CT 10-23 mg·min/L, UV 10, 15, 20 mJ/cm^2)?
A: Its value is “did NOT always result in the geometric mean or maximum disinfection targets being met”.

Q: And the “attainment of E. coli disinfection targets” value (E. coli [3]; UV prior to PAA (UV→PAA), UV 10, 15, 20 mJ/cm^2, PAA CT 5-25 mg·min/L)?
A: The value was “both the maximum and geometric mean disinfection targets being met for at least one combination of fluence and CT; also recorded: consistently met disinfection targets”.

Q: And the “attainment of E. coli disinfection targets” value (E. coli [3]; simultaneous UV+PAA, UV 10, 15, 20 mJ/cm^2, PAA CT 15-30 mg·min/L)?
A: The value was “could not achieve the geomean or maximum disinfection targets”.

Q: And the “synergistic benefit of PAA combined with UV” value [4]?
A: The value was “no synergistic benefit observed”.
